The results in this text go back to the Kinase Knowledgebase extract (Sharma et al. 2016).

The term IC50 denotes the concentration needed to halve the response being measured. The low end stands for inhibition by little substance, the high end for a need for much substance.

This assay concerns the target MAPK14 (UniProt Q16539). Briefly: Inhibition of MAPK14 Kinase Activity.

MAPK14, sequence (Q16539 whole entry, looked up): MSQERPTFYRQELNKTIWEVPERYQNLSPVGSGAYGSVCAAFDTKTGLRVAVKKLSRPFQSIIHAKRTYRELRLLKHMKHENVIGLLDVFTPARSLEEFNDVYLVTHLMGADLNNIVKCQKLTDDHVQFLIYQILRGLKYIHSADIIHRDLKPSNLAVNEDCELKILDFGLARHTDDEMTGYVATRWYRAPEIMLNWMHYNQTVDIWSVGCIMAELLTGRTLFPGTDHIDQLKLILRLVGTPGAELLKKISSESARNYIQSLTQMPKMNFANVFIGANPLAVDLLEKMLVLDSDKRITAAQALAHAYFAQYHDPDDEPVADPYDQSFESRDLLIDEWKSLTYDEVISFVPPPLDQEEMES

With `COCn1ccc2cc(C(=O)N3CCC(Cc4ccc(F)cc4)CC3)c(OC)nc21`, the IC50 was determined as 340 nM.
On to `CNC(=O)C(=O)c1c[nH]c2nc(OC)c(C(=O)N3CCC(Cc4ccc(F)cc4)CC3)cc12`, for which the IC50 worked out at 44 nM.
`COCn1cc(C(=O)C(=O)N2CCCC2)c2cc(C(=O)N3CCC(Cc4ccc(F)cc4)CC3)c(OC)nc21`: the IC50 is 79 nM.
In turn, `COc1nc2[nH]cc(C(=O)C(=O)N3CCCC3)c2cc1C(=O)N1CCC(Cc2ccc(F)cc2)CC1` came in with a half-inhibitory concentration (IC50) of 50 nM.
For `COc1nc2[nH]cc(C(=O)C(=O)N(C)C)c2cc1C(=O)N1CCC(Cc2ccc(F)cc2)CC1`, the IC50 came out at 60 nM.
`COc1nc2c(cc1C(=O)N1CCC(Cc3ccc(F)cc3)CC1)c(C(=O)C(=O)N1CCCC1)cn2C`: the IC50 came to 35 nM.
As for `COc1nc2[nH]ccc2cc1C(=O)N1C[C@H](C)N(Cc2ccc(F)cc2)C[C@H]1C`, the figure is 35 nM; as for `COc1nc2[nH]cc(C(=O)C(=O)N3CC[C@@H](O)C3)c2cc1C(=O)N1CCC(Cc2ccc(F)cc2)CC1`, 32 nM; as for `COc1nc2[nH]cc(C(=O)C(=O)NN3CCCC3)c2cc1C(=O)N1CCC(Cc2ccc(F)cc2)CC1`, 39 nM.
As for `CCN(C)C(=O)C(=O)c1c[nH]c2nc(OC)c(C(=O)N3CCC(Cc4ccc(F)cc4)CC3)cc12`, the figure is 63 nM; as for `COCn1cc(C(=O)C(=O)NC(C)C)c2cc(C(=O)N3C[C@H](C)N(Cc4ccc(F)cc4)C[C@H]3C)c(OC)nc21`, 60 nM.
The compound `COc1cc2[nH]ccc2nc1C(=O)N1C[C@H](C)N(Cc2ccc(F)cc2)C[C@H]1C` displayed an IC50 of 41 nM.
The value for `COc1nc2[nH]cc(C(=O)C(=O)NCCO)c2cc1C(=O)N1CCC(Cc2ccc(F)cc2)CC1` was 56 nM.
The value for `COCC(=O)c1c[nH]c2nc(OC)c(C(=O)N3CCN(Cc4ccc(F)cc4)C[C@H]3C)cc12` was 76 nM; that for `CCNC(=O)C(=O)c1cn(C)c2nc(OC)c(C(=O)N3C[C@H](C)N(Cc4ccc(F)cc4)C[C@H]3C)cc12` was 20 nM.
With `C[C@@H]1CN(Cc2ccc(F)cc2)[C@@H](C)CN1C(=O)c1nc2cc[nH]c2cc1Cl`, the IC50 stood at 66 nM.
